Results from patent US20230123334A1, “AMINO LIPID COMPOUND, PREPARATION METHOD THEREFOR, AND APPLICATION THEREOF” (SHENZHEN SHENXIN BIOTECHNOLOGY CO., LTD., priority 2020, published 2023).

Each compound was assayed on HEK293 cells (assay: Preliminary screening as DNA vectors, GFP transfection of HEK293 cells). Details: amino lipid/DOPE liposome with 75 ng plasmid DNA (psin-EGFP-IRES-Puro); number of GFP-expressing cells divided by total nuclei (Hoechst).
Format: cell-based
Outline: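 Lipid + DOPE liposomes (NaOAc, pH 5.6) complexed w/ 75 ng psin-EGFP-IRES-Puro, 30 min RT; added to 3-5×10^4 HEK293/well, 37° C. Hoechst 0.2 μg/mL at 20-24 h, imaged after further 20-24 h. Efficiency = GFP+ cells / total nuclei.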

Point of comparison: `CCCCCCCCCCCCSc1nc(NCCCCCC)nc(NCC2CCN(C)CC2)n1` [S12N6 D10], “Absolute DNA transfection efficiency in HEK293 cells” value 0.1%. Against it:
- CCCCCCCCCCCCCCCSc1nc(NCCCCCCCCCCC)nc(NCCN2CCCCC2)n1 [S15N11 D4] — higher, 8.9%
- CCCCCCCCCCCCCCCCNc1nc(NCCN2CCCCC2)nc(SCCCCCCCCCCC)n1 [S11N16 D4] — higher, 4.4%
- CCCCCCCCCCCCSc1nc(NCCN(CC)CC)nc(SCCCCCCCC)n1 [S8S12 D7] — higher, 9.3%
- CCCCCCCCCCCCCCCNc1nc(NCCN2CCCCC2)nc(SCCCCCCC)n1 [S7N15 D4] — higher, 4.9%
- CCCCCCCCCCCSc1nc(NCCCCCCC)nc(NCCN2CCOCC2)n1 [S11N7 D2] — higher, 11.7%
- CCCCCCCCCCCCCCSc1nc(NCCCCCCCCCCCC)nc(NCCN2CCCC2)n1 [S14N12 D3] — higher, 21.0%
- CCCCCCCCCCCCCNc1nc(NCC2CCN(C)CC2)nc(SCCCCCC)n1 [S6N13 D10] — higher, 51.6%
- CCCCCCCCCCCCCCCNc1nc(NCCN2CCOCC2)nc(SCCCCCCCC)n1 [S8N15 D2] — higher, 4.9%
- CCCCCCCCCCSc1nc(NCCCCCCCCC)nc(NCCCN2CCN(C)CC2)n1 [S10N9 D9] — higher, 12.0%
- CCCCCCCCCCCCCCCCNc1nc(NCCCN2CCN(C)CC2)nc(SCCCCCCCCCCCCCCCC)n1 [S16N16 D9] — lower, 0.0%
- CCCCCCCCCCCCCNc1nc(NCCN2CCCC2)nc(SCCCCCCCCC)n1 [S9N13 D3] — higher, 31.6%
- CCCCCCCCCCCCCCCCNc1nc(NCCN2CCCCC2)nc(SCCCCCC)n1 [S6N16 D4] — higher, 2.4%
- CCCCCCCCCCSc1nc(NCCCCCCC)nc(NCCN2CCOCC2)n1 [S10N7 D2] — higher, 2.4%
- CCCCCCCCCCCCCNc1nc(NCCN2CCOCC2)nc(SCCCCCCCCCCC)n1 [S11N13 D2] — higher, 5.5%
- CCCCCCCCCCCCN(CCCCCCCCCCCC)c1nc(NCCN2CCCCC2)nc(SCCCCCCCCCC)n1 [S10^2N12 D4] — the same, 0.1%
- CCCCCCCCCSc1nc(NCCCCCCC)nc(NCCN(C)C)n1 [S9N7 D1] — higher, 36.0%
- CCCCCCCCCCCCCCCCCCSc1nc(NCCCCCCCCCCCCC)nc(NCCN2CCCC2)n1 [S18N13 D3] — higher, 2.8%
- CCCCCCCCCCCCCCSc1nc(NCCCN(C)C)nc(N(CCCCCCCCCCCC)CCCCCCCCCCCC)n1 [S14^2N12 D6] — higher, 0.2%
- CCCCCCCCCCCCCCCCCCSc1nc(NCCN2CCCCC2)nc(N(CCCCCCCCCCCC)CCCCCCCCCCCC)n1 [S18^2N12 D4] — lower, 0.0%
- CCCCCCCCCCCCN(CCCCCCCCCCCC)c1nc(NCCN2CCOCC2)nc(SCCCCCCCCCC)n1 [S10^2N12 D2] — lower, 0.0%
- CCCCCCCCCCCCNc1nc(NCC2CCN(C)CC2)nc(SCCCCCCCC)n1 [S8N12 D10] — higher, 44.5%
- CCCCCCCCCCCCCCCNc1nc(NCCCN(C)C)nc(SCCCCCCCCC)n1 [S9N15 D6] — higher, 13.4%
- CCCCCCCCCCCCCCCCSc1nc(NCCCCCCCCCCC)nc(NCCCN2CCOCC2)n1 [S16N11 D8] — higher, 5.0%
- CCCCCCCCCCCSc1nc(NCCCCCCC)nc(NCC2CCN(C)CC2)n1 [S11N7 D10] — higher, 28.5%
- CCCCCCCCCCCCCCCSc1nc(NCCCN2CCN(C)CC2)nc(SCCCCCCC)n1 [S7S15 D9] — higher, 1.6%
- CCCCCCCCCCCCCCSc1nc(NCCCN2CCOCC2)nc(N(CCCCCCCCCCCC)CCCCCCCCCCCC)n1 [S14^2N12 D8] — lower, 0.0%
- CCCCCCCCCCCCCCCCNc1nc(NCCN2CCCCC2)nc(SCCCCCCC)n1 [S7N16 D4] — higher, 2.9%
- CCCCCCCCCCCCCCCNc1nc(NCCN(CC)CC)nc(SCCCCCCCCCCCCCC)n1 [S14N15 D7] — higher, 1.1%
- CCCCCCCCCCCCCCCCNc1nc(NCCN2CCN(C)CC2)nc(SCCCCCC)n1 [S6N16 D5] — higher, 19.6%
- CCCCCCCCCCCCCCSc1nc(NCCCCCC)nc(NCCN2CCOCC2)n1 [S14N6 D2] — higher, 18.8%
- CCCCCCCCCCCCCCCCNc1nc(NCC2CCN(C)CC2)nc(SCCCCCCCCC)n1 [S9N16 D10] — higher, 21.8%
- CCCCCCCCCCCSc1nc(NCCCCCCCC)nc(NCCN2CCOCC2)n1 [S11N8 D2] — higher, 18.6%
- CCCCCCCCCCSc1nc(NCCCCCCCCC)nc(NCCN2CCN(C)CC2)n1 [S10N9 D5] — higher, 11.9%
- CCCCCCCCCSc1nc(NCCN2CCCC2)nc(SCCCCCC)n1 [S6S9 D3] — higher, 6.9%
- CCCCCCCCCCCCCCCCCCNc1nc(NCCN2CCCC2)nc(SCCCCCCCCCCCCCCCC)n1 [S16N18 D3] — higher, 0.6%
- CCCCCCCCCCCCSc1nc(NCCN2CCCC2)nc(SCCCCCCCC)n1 [S8S12 D3] — higher, 10.9%
- CCCCCCCCSc1nc(NCCN(C)C)nc(SCCCCCCCC)n1 [S8S8 D1] — higher, 17.9%
- CCCCCCCCCCCCCCCNc1nc(NCC2CCN(C)CC2)nc(SCCCCCCCC)n1 [S8N15 D10] — higher, 22.6%
- CCCCCCCCCCCCCCCNc1nc(NCCN2CCCCC2)nc(SCCCCCC)n1 [S6N15 D4] — higher, 1.7%
- CCCCCCCCNc1nc(NCCCN2CCN(C)CC2)nc(SCCCCCCC)n1 [S7N8 D9] — higher, 14.9%
- CCCCCCCCCCCCCCCCCCNc1nc(NCC2CCN(C)CC2)nc(SCCCCCCCCCCCCCCCC)n1 [S16N18 D10] — higher, 1.2%
- CCCCCCCCCCCCCCSc1nc(NCCCN2CCOCC2)nc(SCCCCCC)n1 [S6S14 D8] — higher, 2.3%
- CCCCCCCCCCCCNc1nc(NCCN2CCCC2)nc(SCCCCCCCCCCC)n1 [S11N12 D3] — higher, 22.8%
- CCCCCCCCCCCCCCCNc1nc(NCCN(C)C)nc(SCCCCCCCC)n1 [S8N15 D1] — higher, 8.0%
- CCCCCCCCSc1nc(NCCN2CCCCC2)nc(SCCCCCC)n1 [S6S8 D4] — higher, 1.3%
- CCCCCCCCCCCCNc1nc(NCCCN2CCN(C)CC2)nc(SCCCCCCC)n1 [S7N12 D9] — higher, 46.4%
- CCCCCCCSc1nc(NCCCN2CCN(C)CC2)nc(SCCCCCC)n1 [S6S7 D9] — higher, 7.5%
- CCCCCCCCCCCCCCCCCCNc1nc(NCCCN(C)C)nc(SCCCCCCCC)n1 [S8N18 D6] — higher, 20.6%
- CCCCCCCCCCCCCCCCSc1nc(NCCCCCCCCCCCCCCC)nc(NCCN2CCCCC2)n1 [S16N15 D4] — higher, 2.6%
- CCCCCCCCCCCCN(CCCCCCCCCCCC)c1nc(NCCCN(C)C)nc(SCCCCCCCC)n1 [S8^2N12 D6] — higher, 0.5%
- CCCCCCCCCCCCCCCCCCSc1nc(NCCCCCCCC)nc(NCCN2CCCC2)n1 [S18N8 D3] — higher, 9.6%
- CCCCCCCCCCCCCCCCCCSc1nc(NCCCCCCCCCCCC)nc(NCCN2CCOCC2)n1 [S18N12 D2] — higher, 0.7%
- CCCCCCCCCCCNc1nc(NCC2CCN(C)CC2)nc(SCCCCCCCCCCC)n1 [S11N11 D10] — higher, 5.6%
- CCCCCCCCCCCCCNc1nc(NCC2CCN(C)CC2)nc(SCCCCCCCC)n1 [S8N13 D10] — higher, 18.7%
- CCCCCCCCCCSc1nc(NCC2CCN(C)CC2)nc(SCCCCCCC)n1 [S7S10 D10] — higher, 25.2%
- CCCCCCCCCCCCCCCCCCSc1nc(NCCCCCC)nc(NCCN(C)C)n1 [S18N6 D1] — higher, 6.9%
- CCCCCCCCCCCCCCCCCCSc1nc(NCCCCCCCCCCCCCCCC)nc(NCCN(CC)CC)n1 [S18N16 D7] — lower, 0.0%
- CCCCCCCCCCCCNc1nc(NCCCN2CCOCC2)nc(SCCCCCCCCCCC)n1 [S11N12 D8] — higher, 1.5%
- CCCCCCCCNc1nc(NCCCN(C)C)nc(SCCCCCCC)n1 [S7N8 D6] — higher, 22.3%
- CCCCCCCCCCCCCCCSc1nc(NCCCCCCCCCCCCC)nc(NCCN2CCOCC2)n1 [S15N13 D2] — lower, 0.0%
- CCCCCCCCCCSc1nc(NCCCCCCCC)nc(NCCN(C)C)n1 [S10N8 D1] — higher, 7.1%
- CCCCCCCCCCCCCCCCCCSc1nc(NCCCCCCCCC)nc(NCC2CCN(C)CC2)n1 [S18N9 D10] — higher, 4.5%
- CCCCCCCCCCCSc1nc(NCCCCCCC)nc(NCCN(CC)CC)n1 [S11N7 D7] — higher, 11.6%
- CCCCCCCCCCCCCCCNc1nc(NCC2CCN(C)CC2)nc(SCCCCCCCCCCC)n1 [S11N15 D10] — higher, 7.0%
- CCCCCCCCCCCCCCCCCCNc1nc(NCC2CCN(C)CC2)nc(SCCCCCCCCCCCCCCC)n1 [S15N18 D10] — higher, 1.2%
- CCCCCCCCCCCCCCCCCCNc1nc(NCCN2CCOCC2)nc(SCCCCCCCCC)n1 [S9N18 D2] — higher, 10.2%
- CCCCCCCCCCCCCCCCCCNc1nc(NCCN2CCOCC2)nc(SCCCCCCCCCCCCCCCC)n1 [S16N18 D2] — lower, 0.0%
- CCCCCCCCCCCSc1nc(NCCN2CCCC2)nc(SCCCCCC)n1 [S6S11 D3] — higher, 12.4%
- CCCCCCCCCNc1nc(NCCN2CCOCC2)nc(SCCCCCCCCC)n1 [S9N9 D2] — higher, 24.0%
- CCCCCCCCCCCCCCCCCCNc1nc(NCCCN(C)C)nc(SCCCCCCCCCCCCCCC)n1 [S15N18 D6] — higher, 0.3%
